Key:
human 5-HT2A = target: T1, human 5-HT2A (Homo sapiens, UniProt P28223); assay: Primary radioligand competitive binding assay, [3H]ketanserin; details: ligand 10 μM, HEK293 cells
T1 construct: expressed in transfected cells; host or cells: HEK293 (Flp-In system, pcDNA5.0FRT)
Description: HEK293 cells and CHO cells were used in the radioligand binding assay while tsA-201 cells were used in the electrophysiological study. Human CB2, human 5-HT2A, rat 5-HT2C used in the binding studies were cloned into pcDNA5.0FRT and cell lines were made using the FlpIn system from Invitrogen. tsA-201 cell culture and transient calcium channel transfection were performed as described previously. In brief, tsA-201 cells were transfected using the calcium phosphate method. Cav3.1, 3.2 and 3.3 α1 subunits were transfected individually with yellow fluorescent protein as a transfection marker.
Radioligand binding data were obtained using National Institute of Mental Health's Psychoactive Drug Screening Program (NIMH/PDSP) using the same protocol described for CB1 and CB2 binding experiments. Transfected HEK293 (human 5-HT2A or rat 5-HT2C) cells were used. The radioligands were [^3H]ketanserin (0.5 nM) and [^3H]mesulergine (0.5 nM) for respectively 5-HT2A and 5-HT2C experiments. Non-specific binding was determined in the presence of 10 μM chlorpromazine for both 5-HT2A and 5-HT2C binding experiments. Cells were harvested and homogenized in 50 mM Tris HCl, 10 mM MgCl2, 0.1 mM EDTA, pH 7.4. Incubation of radioreceptor binding assay mixtures was 1.5 hours at room temperature in the dark.

Human CB1 = Human CB1 (Homo sapiens, UniProt P21554); assay: GTPγ[35S] functional assay, CHO cell membrane extracts; parameters: Emax: dose or concentration left out as unconfirmed
Description: Functional activity was evaluated using GTPγ[^35S] assay in CHO cell membrane extracts expressing recombinant human CB1 or CB2 receptors as we previously described [51]. Compounds were solubilized in 100% DMSO at a concentration of 10 mM within 4 hours of the first testing session. A predilution for the dose response curve was performed in 100% DMSO and then diluted 100 fold in assay buffer at a concentration 2 fold higher than the concentration to be tested. […] Membranes were mixed with GDP diluted in assay buffer to give 30 μM solution (volume:volume) and incubated for at least 15 min on ice. In parallel, GTPγ[^35S] (GE Healthcare, Catalogue number SJ1308) were mixed with the beads (PVT-WGA (GE Healthcare, RPNQ001)), diluted in assay buffer at 50 mg/ml (0.5 mg/10 μl) (volume:volume) just before starting the reaction. The following reagents were successively added in the wells of an Optiplate (Perkin Elmer): 50 μl of ligand, 20 μl of the membranes:GDP mix, 10 μl of assay buffer for agonist testing, and 20 μl of the GTPγ[^35S]:beads mix. The plates were covered with a topseal, shacked on an orbital shaker for 2 min, and then incubated for 1 hour at room temperature. Then the plates were centrifuged for 10 min at 2000 rpm and counted for 1 min/well with a PerkinElmer TopCount reader. […] For replicate determinations, the maximum variability tolerated in the test was of ± 20% around the average of the replicates.

formalin-induced pain = assay: Formalin test (formalin-induced nociception); format: in vivo, mice; details: for effect on second phase of formalin-induced nociception / effect on first phase of formalin-induced nociception: i.pl., co-injected with formalin; for effect on second phase of formalin-induced nociception: 0.03-3 μg/paw; for effect on first phase of formalin-induced nociception: NMP-4 and NMP-144 0.03-3 μg/paw, NMP-7 0.3-3 μg/i.pl.; for reduction of pain response time, first (neurogenic) phase / reduction of pain response time, second (inflammatory) phase: 10 min prior, NMP-4 1-10 μg/i.t., NMP-144 0.1-1 μg/i.t., NMP-7 3-30 μg/i.t., mice
Description: All experiments were conducted following the protocol approved by the Institutional Animal Care and Use Committee (protocol #M09130) and all efforts were made to minimize animal suffering. Male mice of C57BL/6J strain weighing 25~30 g, 10 weeks old were used. Animals were housed at a maximum number of five per cage (30 × 20 × 15 cm) with food and water ad libitum. They were kept in 12 h light/dark cycles (lights on at 7:00 a.m.) at a temperature of 23 ± 1°C. All manipulations were carried out between 11:00 am and 3:00 pm. […] Control animals received the same vehicle used to dilute the compounds. When drugs were delivered by intraperitoneal (i.p.) route, a constant volume of 10 ml/kg body weight was injected. When drugs were administered by intrathecal (i.t.) or intraplantar (i.pl.) routes, respectively volumes of 5 μl or 20 μl were injected. Appropriate vehicle-treated groups were also assessed simultaneously.
The formalin test is a widely used model that allows us to evaluate two different types of pain: neurogenic pain (phase 1) is caused by direct activation of nociceptive nerve terminals, while inflammatory pain (phase 2) is mediated by a combination of peripheral input and spinal cord sensitization. Animals received 20 μl of a formalin solution (1.25%) made up in PBS injected intraplantarly (i.pl.) in the ventral surface of the right hindpaw. Following i.pl. injection of formalin, the animals were immediately placed individually into observation chambers and the time spent licking or biting the injected paw was be recorded and considered as nociceptive response. We observed animals individually from 0-5 min (neurogenic phase) and 15-30 min (inflammatory phase).
Intrathecal injections were given to fully conscious mice using the method previously described by Hylden and Wilcox. Briefly, the animals were manually restrained, and a 30-gauge needle connected by a polyethylene tube to a 25 μl Hamilton syringe (Hamilton, Birmingham, UK) was inserted through the skin and between the vertebrae into the […] space of the L5-L6 spinal segments. Intrathecal injections were given over a period of 5 seconds.

N-type calcium channels = target: T2, N-type calcium channels (Homo sapiens, UniProt Q00975); assay: Whole-cell patch-clamp on N-type calcium channels; format: cell-based; details: n = 5, read-out: effect on N-type calcium channels (inhibition)
T2 construct: expressed in transfected cells; host or cells: tsA-201 cells (general electrophysiology statement)
T2 sequence (P54289 25-956): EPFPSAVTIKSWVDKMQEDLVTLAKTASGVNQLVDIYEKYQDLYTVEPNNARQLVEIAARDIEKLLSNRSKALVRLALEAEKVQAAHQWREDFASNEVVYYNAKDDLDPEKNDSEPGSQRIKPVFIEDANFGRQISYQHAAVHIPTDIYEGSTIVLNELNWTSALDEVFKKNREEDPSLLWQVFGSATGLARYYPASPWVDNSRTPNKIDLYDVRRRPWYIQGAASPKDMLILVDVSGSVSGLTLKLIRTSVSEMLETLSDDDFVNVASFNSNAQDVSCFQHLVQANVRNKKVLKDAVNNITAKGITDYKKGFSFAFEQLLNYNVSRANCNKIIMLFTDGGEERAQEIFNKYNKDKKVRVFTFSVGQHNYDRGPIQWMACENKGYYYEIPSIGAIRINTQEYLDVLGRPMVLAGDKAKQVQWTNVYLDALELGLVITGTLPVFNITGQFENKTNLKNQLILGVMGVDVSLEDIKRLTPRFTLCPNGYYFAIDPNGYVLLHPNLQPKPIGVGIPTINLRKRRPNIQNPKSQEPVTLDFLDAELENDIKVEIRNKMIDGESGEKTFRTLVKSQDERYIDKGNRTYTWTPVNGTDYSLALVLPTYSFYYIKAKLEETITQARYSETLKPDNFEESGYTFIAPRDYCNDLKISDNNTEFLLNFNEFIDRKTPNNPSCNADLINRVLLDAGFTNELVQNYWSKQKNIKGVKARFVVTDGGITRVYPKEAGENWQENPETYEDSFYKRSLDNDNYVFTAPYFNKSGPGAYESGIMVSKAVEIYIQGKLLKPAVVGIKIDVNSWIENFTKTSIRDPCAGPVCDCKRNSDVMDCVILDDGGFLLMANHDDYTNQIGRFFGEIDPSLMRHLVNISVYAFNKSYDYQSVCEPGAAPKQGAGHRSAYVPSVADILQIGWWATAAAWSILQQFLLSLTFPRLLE
T2 sequence (Q00975 whole entry): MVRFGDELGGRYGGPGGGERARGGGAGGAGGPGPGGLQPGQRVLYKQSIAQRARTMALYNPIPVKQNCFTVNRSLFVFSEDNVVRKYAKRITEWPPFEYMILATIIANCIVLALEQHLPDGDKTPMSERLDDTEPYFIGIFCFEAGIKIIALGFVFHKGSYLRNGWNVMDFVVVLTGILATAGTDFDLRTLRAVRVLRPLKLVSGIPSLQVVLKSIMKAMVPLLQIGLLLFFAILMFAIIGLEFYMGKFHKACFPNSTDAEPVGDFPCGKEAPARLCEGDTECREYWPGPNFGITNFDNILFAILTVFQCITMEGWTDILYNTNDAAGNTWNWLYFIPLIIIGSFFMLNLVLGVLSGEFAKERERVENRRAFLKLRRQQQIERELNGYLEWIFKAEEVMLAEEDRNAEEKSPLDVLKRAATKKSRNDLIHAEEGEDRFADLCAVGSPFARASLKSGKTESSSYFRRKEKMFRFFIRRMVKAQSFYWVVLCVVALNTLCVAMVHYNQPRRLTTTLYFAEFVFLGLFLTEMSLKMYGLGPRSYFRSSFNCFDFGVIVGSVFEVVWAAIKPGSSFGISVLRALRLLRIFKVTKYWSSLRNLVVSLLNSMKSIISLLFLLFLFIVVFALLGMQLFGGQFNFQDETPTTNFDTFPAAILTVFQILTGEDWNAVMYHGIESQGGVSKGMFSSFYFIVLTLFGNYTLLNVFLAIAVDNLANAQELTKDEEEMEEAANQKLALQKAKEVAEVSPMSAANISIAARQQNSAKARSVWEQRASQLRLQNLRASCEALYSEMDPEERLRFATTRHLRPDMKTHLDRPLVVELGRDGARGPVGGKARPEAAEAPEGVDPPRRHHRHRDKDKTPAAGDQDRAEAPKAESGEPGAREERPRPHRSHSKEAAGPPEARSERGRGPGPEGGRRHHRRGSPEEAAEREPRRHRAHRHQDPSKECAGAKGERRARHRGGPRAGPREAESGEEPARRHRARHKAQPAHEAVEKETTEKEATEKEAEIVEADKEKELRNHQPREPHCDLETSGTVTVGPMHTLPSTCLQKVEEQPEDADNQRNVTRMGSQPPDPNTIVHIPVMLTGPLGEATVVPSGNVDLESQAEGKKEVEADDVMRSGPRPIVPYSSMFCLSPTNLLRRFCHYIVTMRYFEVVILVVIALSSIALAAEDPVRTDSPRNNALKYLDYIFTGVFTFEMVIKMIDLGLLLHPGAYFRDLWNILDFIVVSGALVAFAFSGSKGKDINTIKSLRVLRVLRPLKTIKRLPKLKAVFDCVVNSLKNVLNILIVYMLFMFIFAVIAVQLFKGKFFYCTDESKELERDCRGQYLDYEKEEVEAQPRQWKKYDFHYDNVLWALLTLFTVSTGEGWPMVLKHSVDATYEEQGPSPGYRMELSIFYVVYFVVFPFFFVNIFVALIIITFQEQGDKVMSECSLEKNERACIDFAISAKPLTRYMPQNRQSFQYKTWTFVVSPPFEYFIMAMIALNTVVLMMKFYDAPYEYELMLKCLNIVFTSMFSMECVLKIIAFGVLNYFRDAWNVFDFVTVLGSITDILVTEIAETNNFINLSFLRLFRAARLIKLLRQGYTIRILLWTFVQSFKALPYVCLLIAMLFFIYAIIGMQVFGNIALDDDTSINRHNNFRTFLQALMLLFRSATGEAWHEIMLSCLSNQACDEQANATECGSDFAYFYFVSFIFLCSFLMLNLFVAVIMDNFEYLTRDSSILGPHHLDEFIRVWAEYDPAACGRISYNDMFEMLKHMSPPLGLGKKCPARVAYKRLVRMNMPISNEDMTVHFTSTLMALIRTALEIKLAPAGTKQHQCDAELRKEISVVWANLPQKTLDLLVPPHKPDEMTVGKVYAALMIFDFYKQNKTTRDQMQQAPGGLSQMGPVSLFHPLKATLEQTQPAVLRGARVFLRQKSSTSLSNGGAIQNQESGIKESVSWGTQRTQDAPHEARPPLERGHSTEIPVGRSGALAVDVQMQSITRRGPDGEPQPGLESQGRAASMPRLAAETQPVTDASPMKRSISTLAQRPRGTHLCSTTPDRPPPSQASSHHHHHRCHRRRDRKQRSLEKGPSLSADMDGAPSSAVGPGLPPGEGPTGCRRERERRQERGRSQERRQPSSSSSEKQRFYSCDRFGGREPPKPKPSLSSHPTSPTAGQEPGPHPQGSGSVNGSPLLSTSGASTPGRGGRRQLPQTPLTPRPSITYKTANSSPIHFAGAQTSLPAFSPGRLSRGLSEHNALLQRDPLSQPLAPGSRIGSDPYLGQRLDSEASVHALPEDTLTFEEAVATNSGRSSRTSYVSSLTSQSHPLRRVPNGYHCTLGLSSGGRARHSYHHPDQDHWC
T2 sequence (P54289 957-1103): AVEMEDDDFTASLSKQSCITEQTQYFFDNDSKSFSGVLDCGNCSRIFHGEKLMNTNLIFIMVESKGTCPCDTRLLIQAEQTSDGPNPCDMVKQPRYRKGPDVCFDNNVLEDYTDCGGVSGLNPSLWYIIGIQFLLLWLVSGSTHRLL
T2 sequence (Q02641 whole entry, further chain): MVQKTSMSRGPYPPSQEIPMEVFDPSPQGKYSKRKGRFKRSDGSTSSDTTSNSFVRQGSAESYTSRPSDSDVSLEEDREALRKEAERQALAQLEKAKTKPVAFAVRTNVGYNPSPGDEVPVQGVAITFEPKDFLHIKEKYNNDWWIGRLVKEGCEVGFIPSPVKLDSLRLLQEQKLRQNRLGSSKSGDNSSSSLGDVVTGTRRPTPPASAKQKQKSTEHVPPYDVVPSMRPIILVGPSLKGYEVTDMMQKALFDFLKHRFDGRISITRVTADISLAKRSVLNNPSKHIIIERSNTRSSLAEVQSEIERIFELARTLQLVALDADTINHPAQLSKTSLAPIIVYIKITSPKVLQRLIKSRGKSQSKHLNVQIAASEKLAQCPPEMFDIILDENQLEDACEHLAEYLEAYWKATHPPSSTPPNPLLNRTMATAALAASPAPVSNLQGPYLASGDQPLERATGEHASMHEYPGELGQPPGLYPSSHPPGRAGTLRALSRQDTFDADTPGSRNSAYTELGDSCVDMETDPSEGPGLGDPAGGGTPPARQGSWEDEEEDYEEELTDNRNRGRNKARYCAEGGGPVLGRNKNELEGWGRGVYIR

T1 sequence (P28223 whole entry): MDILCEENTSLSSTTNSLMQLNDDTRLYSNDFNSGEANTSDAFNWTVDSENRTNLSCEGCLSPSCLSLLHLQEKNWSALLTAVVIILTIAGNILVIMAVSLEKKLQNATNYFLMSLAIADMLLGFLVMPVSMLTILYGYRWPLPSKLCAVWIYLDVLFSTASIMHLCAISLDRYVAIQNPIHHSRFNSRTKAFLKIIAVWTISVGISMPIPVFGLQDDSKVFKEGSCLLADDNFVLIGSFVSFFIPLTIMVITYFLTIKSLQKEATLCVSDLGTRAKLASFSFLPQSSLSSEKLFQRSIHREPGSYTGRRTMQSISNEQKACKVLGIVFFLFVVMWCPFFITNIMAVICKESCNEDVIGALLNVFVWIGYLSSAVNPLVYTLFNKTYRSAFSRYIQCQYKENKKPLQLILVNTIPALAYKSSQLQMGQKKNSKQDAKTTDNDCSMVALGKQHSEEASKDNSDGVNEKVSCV
Human CB1, sequence (P21554 whole entry): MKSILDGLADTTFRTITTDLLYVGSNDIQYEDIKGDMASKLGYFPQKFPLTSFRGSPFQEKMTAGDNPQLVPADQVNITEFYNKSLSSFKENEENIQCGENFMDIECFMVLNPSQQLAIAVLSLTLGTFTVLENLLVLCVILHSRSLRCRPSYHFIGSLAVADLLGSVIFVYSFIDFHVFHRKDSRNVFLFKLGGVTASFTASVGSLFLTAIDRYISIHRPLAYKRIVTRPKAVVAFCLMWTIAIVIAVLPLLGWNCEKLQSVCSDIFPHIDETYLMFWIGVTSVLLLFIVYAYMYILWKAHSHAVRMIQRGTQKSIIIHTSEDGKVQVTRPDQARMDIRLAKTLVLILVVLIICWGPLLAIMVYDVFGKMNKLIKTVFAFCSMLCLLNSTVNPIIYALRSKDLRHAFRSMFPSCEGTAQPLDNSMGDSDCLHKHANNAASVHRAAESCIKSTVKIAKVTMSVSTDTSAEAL

| Compound | Human 5-HT2A (%) primary radioligand competitive binding (human 5-HT2A) [%] | EC50 (Human CB1) [nM] | Emax (Human CB1; read-out: GTPγ[35S] functional assays Human CB1 Emax) [%] | effect of i.pl. pre-treatment on the antinociceptive effect of NMP-7 (1 μg/i.pl.), first phase (formalin-induced pain; NMP-4 0.03 μg/i.pl. pre-treatment) | effect on second phase of formalin-induced nociception (formalin-induced pain) | effect on first phase of formalin-induced nociception (formalin-induced pain) | reduction of pain response time, first (neurogenic) phase (formalin-induced pain; i.t.) [%] | reduction of pain response time, second (inflammatory) phase (formalin-induced pain; i.t.) [%] | inhibition at 10 µM (N-type calcium channels) [%] | lowest dose producing analgesia (formalin-induced pain; i.t., formalin response) [μg/i.t.] |
| --- | --- | --- | --- | --- | --- | --- | --- | --- | --- | --- |
| CCCCCn1c2ccc(C(=O)N3CCCCC3)cc2c2ccc(OC)cc21 [NMP-4] | 23.9 | 118 ± 4 | 30.4 | significantly antagonized | no effect was observed | no effect was observed | 44 ± 4 | 87 ± 7 |  |  |
| CCCCCn1c2c(c3ccc(OC)cc31)CN(C(=O)c1ccccc1)CC2 [NMP-144] | -5.2 |  |  |  | no effect was observed | no effect was observed | 52 ± 3 | 53 ± 14 | 20 | 0.3 |

Reference: paper PMC3250956, “Functional characterization and analgesic effects of mixed cannabinoid receptor/T-type channel ligands” (Molecular Pain, 2011)
